Each structure is given as a SMILES string. A value given as a limit tells only on which side of the number the result lay.

Experiment [1] deals with Met (phospho-Met, HGF-stimulated PC-3 prostate cancer cells) (Homo sapiens (Human), UniProt P08581). As to the kind of experiment: Met autophosphorylation ELISA in PC-3 cells (Example F). Format: cell-based. Particulars: cellular activity; Met autophosphorylation ELISA in PC-3 cells; read-out: c-Met IC50. In a few lines:
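Compounds were tested on HGF-stimulated PC-3 cells. After 24 h culture and 3 h serum starvation, cells got compound for 1 h and 100 ng/mL HGF for 10 min, and Met tyrosine phosphorylation was measured by ELISA.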
For orientation: ELISA stands for enzyme-linked immunosorbent assay.

Experiment [2] addresses KDR (phospho-KDR, VEGF165-stimulated HUVEC cells) (Homo sapiens (Human), UniProt P35968). As to the kind of experiment: KDR autophosphorylation ELISA in HUVEC cells (Example G). Type of experiment: cell-based. The following applies: cellular activity; KDR autophosphorylation ELISA in HUVEC cells. The gist of the method: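 HUVEC cells, serum-starved 24 h, were treated 1 h with an 8-point compound dilution (0.3% DMSO) and then stimulated with 100 ng/mL VEGF165 for 5 min. Phospho-KDR in lysates was quantified by sandwich ELISA against a phospho-KDR standard. IC50 from a 4-parameter logistic fit, normalised between stimulated DMSO and unstimulated controls.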

Experiment [3] deals with Human MET (residues 956-1390) (Homo sapiens (Human), UniProt P08581). As to the kind of experiment: Human Met kinase assay, HTRF KinEase (Example D-2). Type of experiment: biochemical. Particulars: protocol of Example D-2 (other compounds); read-out: c-Met IC50. In a few lines:
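HTRF KinEase assay on MET residues 956-1390 (0.1 ng/well) in buffer with 5 mM MgCl2, 1 mM DTT and 1 mM MnCl2, with biotinylated peptide substrate, ATP at Km, 10 compound concentrations and 3% DMSO final, run 40 min at room temperature. The […] signal was normalized to DMSO and to 1 μM reference compound, and IC50 came from a 4-parameter logistic fit.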
(In general: In TR-FRET formats the signal depends on donor and acceptor labels being close together.)

Met (phospho-Met, HGF-stimulated PC-3 prostate cancer cells), sequence (P08581 25-1390): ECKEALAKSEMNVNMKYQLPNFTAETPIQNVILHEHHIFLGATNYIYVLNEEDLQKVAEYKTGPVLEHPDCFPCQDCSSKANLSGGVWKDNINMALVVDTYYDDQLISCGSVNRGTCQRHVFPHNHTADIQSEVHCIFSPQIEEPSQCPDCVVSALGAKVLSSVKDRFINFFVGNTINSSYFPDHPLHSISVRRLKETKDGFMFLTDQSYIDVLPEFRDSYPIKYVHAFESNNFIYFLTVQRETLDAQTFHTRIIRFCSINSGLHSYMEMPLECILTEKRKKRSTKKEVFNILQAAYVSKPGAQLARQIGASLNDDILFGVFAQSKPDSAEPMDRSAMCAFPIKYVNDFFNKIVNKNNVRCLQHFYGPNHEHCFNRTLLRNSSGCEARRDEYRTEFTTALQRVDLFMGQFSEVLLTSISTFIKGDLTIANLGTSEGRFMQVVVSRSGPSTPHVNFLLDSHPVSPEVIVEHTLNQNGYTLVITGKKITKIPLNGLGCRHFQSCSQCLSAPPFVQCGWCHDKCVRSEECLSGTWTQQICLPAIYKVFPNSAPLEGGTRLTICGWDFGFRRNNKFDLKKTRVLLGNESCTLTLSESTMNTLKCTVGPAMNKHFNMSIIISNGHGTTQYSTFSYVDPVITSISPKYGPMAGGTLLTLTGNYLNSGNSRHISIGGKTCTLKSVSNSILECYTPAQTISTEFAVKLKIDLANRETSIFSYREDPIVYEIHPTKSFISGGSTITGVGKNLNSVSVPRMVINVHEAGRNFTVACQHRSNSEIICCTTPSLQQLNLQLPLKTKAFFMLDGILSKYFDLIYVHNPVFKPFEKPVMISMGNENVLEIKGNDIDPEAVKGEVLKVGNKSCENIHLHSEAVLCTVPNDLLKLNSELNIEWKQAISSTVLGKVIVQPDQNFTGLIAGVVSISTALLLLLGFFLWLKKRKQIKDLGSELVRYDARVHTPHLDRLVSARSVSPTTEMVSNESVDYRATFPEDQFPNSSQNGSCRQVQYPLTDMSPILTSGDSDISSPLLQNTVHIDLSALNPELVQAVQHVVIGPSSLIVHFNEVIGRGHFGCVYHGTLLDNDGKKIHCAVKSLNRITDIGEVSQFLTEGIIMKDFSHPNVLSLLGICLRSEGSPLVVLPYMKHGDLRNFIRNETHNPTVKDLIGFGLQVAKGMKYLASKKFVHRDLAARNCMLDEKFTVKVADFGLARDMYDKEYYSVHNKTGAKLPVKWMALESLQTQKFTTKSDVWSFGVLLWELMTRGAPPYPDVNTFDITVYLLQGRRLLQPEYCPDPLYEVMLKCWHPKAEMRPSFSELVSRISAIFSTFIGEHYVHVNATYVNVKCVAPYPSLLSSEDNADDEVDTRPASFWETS
KDR (phospho-KDR, VEGF165-stimulated HUVEC cells), sequence (P35968 20-1356): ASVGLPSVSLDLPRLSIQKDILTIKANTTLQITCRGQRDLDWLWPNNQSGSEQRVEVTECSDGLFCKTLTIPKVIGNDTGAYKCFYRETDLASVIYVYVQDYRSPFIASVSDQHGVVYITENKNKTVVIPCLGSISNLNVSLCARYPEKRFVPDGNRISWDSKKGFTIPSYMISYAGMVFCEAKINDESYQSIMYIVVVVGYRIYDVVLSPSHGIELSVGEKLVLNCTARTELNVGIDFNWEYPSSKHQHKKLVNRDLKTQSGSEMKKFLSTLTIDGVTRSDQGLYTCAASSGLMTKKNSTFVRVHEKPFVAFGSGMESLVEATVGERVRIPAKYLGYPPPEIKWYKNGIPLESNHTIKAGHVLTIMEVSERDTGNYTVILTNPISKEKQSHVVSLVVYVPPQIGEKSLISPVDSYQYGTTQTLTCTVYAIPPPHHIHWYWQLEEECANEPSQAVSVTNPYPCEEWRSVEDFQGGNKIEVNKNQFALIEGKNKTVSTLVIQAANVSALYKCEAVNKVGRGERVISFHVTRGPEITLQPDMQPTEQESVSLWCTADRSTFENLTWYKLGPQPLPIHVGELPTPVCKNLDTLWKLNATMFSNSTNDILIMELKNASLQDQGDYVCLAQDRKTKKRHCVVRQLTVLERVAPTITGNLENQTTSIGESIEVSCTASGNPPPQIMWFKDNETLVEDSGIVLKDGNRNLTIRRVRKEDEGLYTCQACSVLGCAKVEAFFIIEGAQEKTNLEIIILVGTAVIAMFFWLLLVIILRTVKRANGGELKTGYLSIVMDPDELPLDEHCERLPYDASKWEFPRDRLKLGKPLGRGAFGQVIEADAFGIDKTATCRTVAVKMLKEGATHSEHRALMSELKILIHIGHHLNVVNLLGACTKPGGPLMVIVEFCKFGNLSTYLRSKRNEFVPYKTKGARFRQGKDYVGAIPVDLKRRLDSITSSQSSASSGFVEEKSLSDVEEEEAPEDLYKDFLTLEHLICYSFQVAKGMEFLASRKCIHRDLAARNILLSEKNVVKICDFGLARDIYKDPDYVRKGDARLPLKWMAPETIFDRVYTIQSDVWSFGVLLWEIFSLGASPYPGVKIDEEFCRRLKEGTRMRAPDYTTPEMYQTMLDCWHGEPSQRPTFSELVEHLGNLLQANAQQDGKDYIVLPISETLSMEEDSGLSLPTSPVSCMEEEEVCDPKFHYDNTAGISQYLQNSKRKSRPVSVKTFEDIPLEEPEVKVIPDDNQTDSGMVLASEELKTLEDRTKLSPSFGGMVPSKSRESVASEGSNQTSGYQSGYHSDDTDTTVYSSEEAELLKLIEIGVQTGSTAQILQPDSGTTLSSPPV
Human MET (residues 956-1390), sequence (P08581 956-1390): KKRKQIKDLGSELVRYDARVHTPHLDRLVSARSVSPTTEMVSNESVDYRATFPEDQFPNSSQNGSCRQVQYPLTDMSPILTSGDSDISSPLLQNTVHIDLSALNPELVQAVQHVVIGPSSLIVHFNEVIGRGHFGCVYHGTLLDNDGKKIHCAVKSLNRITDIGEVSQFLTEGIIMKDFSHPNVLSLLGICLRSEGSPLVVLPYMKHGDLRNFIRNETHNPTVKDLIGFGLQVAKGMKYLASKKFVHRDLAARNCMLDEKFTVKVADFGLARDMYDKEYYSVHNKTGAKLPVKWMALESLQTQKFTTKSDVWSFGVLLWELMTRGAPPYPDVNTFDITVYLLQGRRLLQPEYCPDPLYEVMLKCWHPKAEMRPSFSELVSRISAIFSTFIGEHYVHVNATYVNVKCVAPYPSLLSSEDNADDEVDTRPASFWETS

A word on the IC50: it is the concentration needed to halve the response being measured. As to `COc1cnc2c(Oc3ccc(NC(=O)c4cnc(CO)c(-c5ccc(F)cc5)c4O)cc3F)ccnc2c1` [Compound 217, N-[3-Fluoro-4-[(7-methoxy-1,5-naphthyridin-4-yl)oxy]phenyl]-5-(4-fluorophenyl)-4-hydroxy-6-(hydroxymethyl)pyridine-3-carboxamide], the IC50 in experiment [1], in experiment [2] and in experiment [3] was less than 100 nM throughout.
For `COc1cnc2c(Oc3ccc(NC(=O)c4cnc(CO)c(-c5ccc(F)cc5)c4O)cc3)ccnc2c1` [Compound 218, 5-(4-Fluorophenyl)-4-hydroxy-6-(hydroxymethyl)-N-[4-[(7-methoxy-1,5-naphthyridin-4-yl)oxy]phenyl]pyridine-3-carboxamide], the IC50 in experiment [1], in experiment [2] and in experiment [3] was less than 100 nM each time.
`COc1cc2nccc(Oc3ccc(NC(=O)c4ccc(C)n(-c5ccc(F)cc5C)c4=O)cc3F)c2nc1OC` [Compound 219, N-[4-[(6,7-Dimethoxy-1,5-naphthyridin-4-yl)oxy]-3-fluorophenyl]-1-(4-fluoro-2-methylphenyl)-6-methyl-2-oxopyridine-3-carboxamide]: the IC50 in experiment [1], in experiment [2] and in experiment [3] was less than 100 nM in each case.
Turning to `COc1cnc2c(Oc3ccc(NC(=O)c4ccc(C)n(-c5ccc(F)cc5C)c4=O)cc3F)ccnc2c1` [Compound 220, N-[3-Fluoro-4-[(7-methoxy-1,5-naphthyridin-4-yl)oxy]phenyl]-1-(4-fluoro-2-methylphenyl)-6-methyl-2-oxopyridine-3-carboxamide], the IC50 in experiment [1], in experiment [2] and in experiment [3] was less than 100 nM in each case.
Turning to `COc1cc2nccc(Oc3ccc(NC(=O)c4cn(C)c(CO)c(-c5ccc(F)cc5)c4=O)cc3)c2nc1OC` [Compound 221, N-[4-[(6,7-Dimethoxy-1,5-naphthyridin-4-yl)oxy]phenyl]-5-(4-fluorophenyl)-6-(hydroxymethyl)-1-methyl-4-oxopyridine-3-carboxamide], the half-maximal inhibitory concentration (IC50) in experiment [1] is less than 100 nM; in experiment [2] it was 100 to 300 nM; in experiment [3] it was less than 100 nM.
With `COc1cnc2c(Oc3ccc(NC(=O)c4cn(C)c(CO)c(-c5ccc(F)cc5)c4=O)cc3F)ccnc2c1` [Compound 222, N-[3-Fluoro-4-[(7-methoxy-1,5-naphthyridin-4-yl)oxy]phenyl]-5-(4-fluorophenyl)-6-(hydroxymethyl)-1-methyl-4-oxopyridine-3-carboxamide], the IC50 in experiment [1] is less than 100 nM; in experiment [2], more than 300 nM; in experiment [3], less than 100 nM.
As to `COc1cnc2c(Oc3ccc(NC(=O)c4cn(C)c(CO)c(-c5ccc(F)cc5)c4=O)cc3)ccnc2c1` [Compound 223, 5-(4-Fluorophenyl)-6-(hydroxymethyl)-N-[4-[(7-methoxy-1,5-naphthyridin-4-yl)oxy]phenyl]-1-methyl-4-oxopyridine-3-carboxamide], the values for the IC50 in experiment [1], in experiment [2] and in experiment [3] were less than 100 nM, more than 300 nM and less than 100 nM, respectively.
As to `COc1ccc2nccc(Oc3ccc(NC(=O)c4cn(C)c(CO)c(-c5ccc(F)cc5)c4=O)cc3F)c2n1` [Compound 224, N-[3-Fluoro-4-[(6-methoxy-1,5-naphthyridin-4-yl)oxy]phenyl]-5-(4-fluorophenyl)-6-(hydroxymethyl)-1-methyl-4-oxopyridine-3-carboxamide], the IC50 is 100 to 300 nM in experiment [1], more than 300 nM in experiment [2] and less than 100 nM in experiment [3].
For `COc1cc2nccc(Oc3ccc(NC(=O)c4ccc(C)n(-c5ccc(F)cc5C)c4=O)cc3)c2nc1OC` [Compound 225, N-[4-[(6,7-Dimethoxy-1,5-naphthyridin-4-yl)oxy]phenyl]-1-(4-fluoro-2-methylphenyl)-6-methyl-2-oxopyridine-3-carboxamide], in that order: less than 100 nM, less than 100 nM and less than 100 nM.
Consider `COc1cnc2c(Oc3ccc(NC(=O)c4ccc(C)n(-c5ccc(F)cc5C)c4=O)cc3)ccnc2c1` [Compound 226, 1-(4-Fluoro-2-methylphenyl)-N-[4-[(7-methoxy-1,5-naphthyridin-4-yl)oxy]phenyl]-6-methyl-2-oxopyridine-3-carboxamide], for which the IC50 in experiment [1], in experiment [2] and in experiment [3] was less than 100 nM in each case.
Consider `COCCOc1nc2c(Oc3ccc(NC(=O)c4ccc(C)n(-c5ccc(F)cc5)c4=O)cc3F)ccnc2cc1OC` [Compound 227, N-[3-Fluoro-4-[[7-methoxy-6-(2-methoxyethoxy)-1,5-naphthyridin-4-yl]oxy]phenyl]-1-(4-fluorophenyl)-6-methyl-2-oxopyridine-3-carboxamide], for which the IC50 in experiment [1], in experiment [2] and in experiment [3] was less than 100 nM in each case.
For the compound `COCCOc1nc2c(Oc3ccc(NC(=O)c4cn(C)c(CO)c(-c5ccc(F)cc5)c4=O)cc3F)ccnc2cc1OC` [Compound 228, N-[3-Fluoro-4-[[7-methoxy-6-(2-methoxyethoxy)-1,5-naphthyridin-4-yl]oxy]phenyl]-5-(4-fluorophenyl)-6-(hydroxymethyl)-1-methyl-4-oxopyridine-3-carboxamide], the figures for the IC50 in experiment [1], in experiment [2] and in experiment [3] were less than 100 nM, more than 300 nM and less than 100 nM, respectively.
As to `COc1cc2nccc(Oc3ccc(NC(=O)c4ccc(C)n(-c5ccc(F)cc5)c4=O)cc3)c2nc1OC` [Compound 229, N-[4-[(6,7-Dimethoxy-1,5-naphthyridin-4-yl)oxy]phenyl]-1-(4-fluorophenyl)-6-methyl-2-oxopyridine-3-carboxamide], the IC50 in experiment [1], in experiment [2] and in experiment [3] was less than 100 nM in each case.
With `COc1ccc2nccc(Oc3ccc(NC(=O)c4n[nH]c(C)c(-c5ccc(F)cc5C)c4=O)cc3F)c2n1` [Compound 230, N-[3-Fluoro-4-[(6-methoxy-1,5-naphthyridin-4-yl)oxy]phenyl]-5-(4-fluoro-2-methylphenyl)-6-methyl-4-oxo-1H-pyridazine-3-carboxamide], the results for the IC50 in experiment [1], in experiment [2] and in experiment [3] were 100 to 300 nM, 100 to 300 nM and less than 100 nM, respectively.
In the case of `COc1ccc2nccc(Oc3ccc(NC(=O)c4cnc(CO)c(-c5ccc(F)cc5)c4O)cc3F)c2n1` [Compound 231, N-[3-Fluoro-4-[(6-methoxy-1,5-naphthyridin-4-yl)oxy]phenyl]-5-(4-fluorophenyl)-4-hydroxy-6-(hydroxymethyl)pyridine-3-carboxamide], the IC50 in experiment [1], in experiment [2] and in experiment [3] was less than 100 nM in each case.
As to `COc1ccc2nccc(Oc3ccc(NC(=O)c4cnc(C)n(-c5ccc(F)cc5)c4=O)cc3F)c2n1` [Compound 232, N-[3-Fluoro-4-[(6-methoxy-1,5-naphthyridin-4-yl)oxy]phenyl]-1-(4-fluorophenyl)-2-methyl-6-oxopyrimidine-5-carboxamide], the IC50 in experiment [1] was less than 100 nM; in experiment [2], 100 to 300 nM; in experiment [3], less than 100 nM.
As for `COc1ccc2nccc(Oc3ccc(NC(=O)c4c(C)nc(C)n(-c5ccc(F)cc5)c4=O)cc3F)c2n1` [Compound 233, N-[3-Fluoro-4-[(6-methoxy-1,5-naphthyridin-4-yl)oxy]phenyl]-1-(4-fluorophenyl)-2,4-dimethyl-6-oxopyrimidine-5-carboxamide], the IC50 is 100 to 300 nM in experiment [1], less than 100 nM in experiment [2] and 100 to 300 nM in experiment [3].
Take `COc1ccc2nccc(Oc3ccc(NC(=O)c4c(C)ncn(-c5ccc(F)cc5)c4=O)cc3F)c2n1` [Compound 234, N-[3-Fluoro-4-[(6-methoxy-1,5-naphthyridin-4-yl)oxy]phenyl]-1-(4-fluorophenyl)-4-methyl-6-oxopyrimidine-5-carboxamide]: the IC50 in experiment [1] is less than 100 nM; in experiment [2], 100 to 300 nM; in experiment [3], more than 300 nM.
The like results for `COc1cc2nccc(Oc3ccc(NC(=O)c4c(C)ncc(-c5ccc(F)cc5)c4O)cc3)c2nc1OC` [Compound 235, N-[4-[(6,7-Dimethoxy-1,5-naphthyridin-4-yl)oxy]phenyl]-5-(4-fluorophenyl)-4-hydroxy-2-methylpyridine-3-carboxamide] were, in that order, less than 100 nM, less than 100 nM and less than 100 nM.
The like results for `COc1cnc2c(Oc3ccc(NC(=O)c4c(C)ncc(-c5ccc(F)cc5)c4O)cc3)ccnc2c1` [Compound 236, 5-(4-Fluorophenyl)-4-hydroxy-N-[4-[(7-methoxy-1,5-naphthyridin-4-yl)oxy]phenyl]-2-methylpyridine-3-carboxamide] were, in that order, less than 100 nM, less than 100 nM and less than 100 nM.
For `COc1cc2nccc(Oc3ccc(NC(=O)c4c(C)ncc(-c5ccc(F)cc5)c4O)cc3F)c2nc1OC` [Compound 237, N-[4-[(6,7-Dimethoxy-1,5-naphthyridin-4-yl)oxy]-3-fluorophenyl]-5-(4-fluorophenyl)-4-hydroxy-2-methylpyridine-3-carboxamide], in that order: less than 100 nM, less than 100 nM and less than 100 nM.

Values taken from US12371428B2 (Exelixis, Inc., priority 2019, dated 2025).
